{
  "source": "patent US6302837A",
  "about": "“Benzothiophene, benzofuran and indole compounds” (Adir et Compagnie, priority 1999, dated 2001)",
  "note": "pIC50: −log10 of the molar value.",
  "data": [
    {"molecular_target": "recombinant active human PAI-1 (Homo sapiens, UniProt P05121)", "sequence (P05121 24-402)": "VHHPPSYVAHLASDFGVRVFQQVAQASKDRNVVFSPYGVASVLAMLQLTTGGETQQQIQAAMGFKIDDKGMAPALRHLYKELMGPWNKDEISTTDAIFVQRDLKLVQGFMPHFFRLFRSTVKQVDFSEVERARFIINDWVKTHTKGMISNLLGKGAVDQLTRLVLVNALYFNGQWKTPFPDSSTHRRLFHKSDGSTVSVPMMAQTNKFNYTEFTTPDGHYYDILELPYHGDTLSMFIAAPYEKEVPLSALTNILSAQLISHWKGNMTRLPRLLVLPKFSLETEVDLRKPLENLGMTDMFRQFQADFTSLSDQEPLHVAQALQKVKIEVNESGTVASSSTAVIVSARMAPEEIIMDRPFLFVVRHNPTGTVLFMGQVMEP", "assay": "Inhibition of the activity of PAI-1 in vitro (fibrin clot breakdown, turbidity)", "format": "biochemical", "conditions": "absorbance two hours after start of fibrin formation, 50 mM phosphate buffer pH 7.4, tissue plasminogen activator, fibrinogen, thrombin, read-out: IC50 (concentration of product that inhibits PAI-1 activity by 50%)", "procedure": "Inhibition of the activity of PAI-1 was effected in vitro in microplate wells in which the formation and then breakdown of a fibrin clot is monitored continuously by measurement of its turbidity using a spectrophotometer. To do so, using, as diluent, a 50 mM phosphate buffer pH 7.4 containing 0.05% of bovine serum albumin, […] of the inhibitor is placed in the presence of 50 μl of a 2 nM solution of recombinant active human PAI-1 for 5 minutes at ambient temperature. 50 μl of a 0.42 nM solution of tissue plasminogen activator, 50 μl of an 800 nM solution of human plasminogen and 50 μl of a 2 g/liter solution of fibrinogen are then added and the fibrin formation is triggered by the addition of 50 μl of 14 nM purified human thrombin. In the absence of the product, inhibition of breakdown two hours after the start of fibrin formation is measured by the absorbance of the clot and represents 100% of the PAI-1 activity. In the absence of the product and of PAI-1, breakdown is measured by the absorbance of the broken-down clot and represents 0% of the PAI-1 activity. The concentration of product that inhibits PAI-1 activity by 50% is determined by measuring the absorbance of the clot two hours after fibrin formation in the presence of PAI-1 and of an increasing concentration of the product.", "values": [
      {"compound": "O=C(O)/C(=C/c1sc2cc(OCc3ccc(-c4ccccc4)cc3)c(OCc3ccc(-c4ccccc4)cc3)cc2c1Oc1ccc(Cl)cc1)c1ccncc1", "note": "[Example 2, (E)-3-[5,6-Bis-([1,1'-biphenyl]-4-ylmethoxy)-3-(4-chlorophenoxy)-benzo[b]thiophen-2-yl]-2-(4-pyridyl)2-propenoic acid]", "pIC50": 6.89},
      {"compound": "O=C(O)/C(=C/c1sc2cc(OCc3ccc(-c4ccccc4)cc3)c(OCc3ccc(-c4ccccc4)cc3)cc2c1Oc1cccnc1)c1ccncc1", "note": "[Example 10]", "pIC50": 6.28},
      {"compound": "O=C(O)/C(=C/c1sc2cc(OCc3ccc(-c4ccccc4)cc3)c(OCc3ccc(-c4ccccc4)cc3)cc2c1Oc1ccccc1)c1ccncc1", "note": "[Example 26, (E)-3-[5,6-Bis([1,1'-biphenyl]-4-ylmethoxy)-3-phenoxy-benzo[b]thiophen-2-yl]-2-(4-pyridyl)-2-propenoic acid]", "pIC50": 7.22}
    ]}
  ]
}
